This is an account of results in US11420970B1 (NOVARTIS AG, priority 2019, dated 2022).

Each structure is given as a SMILES string.

One experiment deals with NSD2 [1-1365] (Homo sapiens (Human), UniProt O96028). Briefly: LC-MS/MS-based NSD2 enzymatic assay (SAH production). The settings on record: NSD2 biochemical activity, class symbols; read-out: NSD2 IC50. The class given is biochemical. On the procedure: LC-MS/MS-Based NSD2 Enzymatic Assay
Chain of NSD2 [1-1365] (O96028 whole entry): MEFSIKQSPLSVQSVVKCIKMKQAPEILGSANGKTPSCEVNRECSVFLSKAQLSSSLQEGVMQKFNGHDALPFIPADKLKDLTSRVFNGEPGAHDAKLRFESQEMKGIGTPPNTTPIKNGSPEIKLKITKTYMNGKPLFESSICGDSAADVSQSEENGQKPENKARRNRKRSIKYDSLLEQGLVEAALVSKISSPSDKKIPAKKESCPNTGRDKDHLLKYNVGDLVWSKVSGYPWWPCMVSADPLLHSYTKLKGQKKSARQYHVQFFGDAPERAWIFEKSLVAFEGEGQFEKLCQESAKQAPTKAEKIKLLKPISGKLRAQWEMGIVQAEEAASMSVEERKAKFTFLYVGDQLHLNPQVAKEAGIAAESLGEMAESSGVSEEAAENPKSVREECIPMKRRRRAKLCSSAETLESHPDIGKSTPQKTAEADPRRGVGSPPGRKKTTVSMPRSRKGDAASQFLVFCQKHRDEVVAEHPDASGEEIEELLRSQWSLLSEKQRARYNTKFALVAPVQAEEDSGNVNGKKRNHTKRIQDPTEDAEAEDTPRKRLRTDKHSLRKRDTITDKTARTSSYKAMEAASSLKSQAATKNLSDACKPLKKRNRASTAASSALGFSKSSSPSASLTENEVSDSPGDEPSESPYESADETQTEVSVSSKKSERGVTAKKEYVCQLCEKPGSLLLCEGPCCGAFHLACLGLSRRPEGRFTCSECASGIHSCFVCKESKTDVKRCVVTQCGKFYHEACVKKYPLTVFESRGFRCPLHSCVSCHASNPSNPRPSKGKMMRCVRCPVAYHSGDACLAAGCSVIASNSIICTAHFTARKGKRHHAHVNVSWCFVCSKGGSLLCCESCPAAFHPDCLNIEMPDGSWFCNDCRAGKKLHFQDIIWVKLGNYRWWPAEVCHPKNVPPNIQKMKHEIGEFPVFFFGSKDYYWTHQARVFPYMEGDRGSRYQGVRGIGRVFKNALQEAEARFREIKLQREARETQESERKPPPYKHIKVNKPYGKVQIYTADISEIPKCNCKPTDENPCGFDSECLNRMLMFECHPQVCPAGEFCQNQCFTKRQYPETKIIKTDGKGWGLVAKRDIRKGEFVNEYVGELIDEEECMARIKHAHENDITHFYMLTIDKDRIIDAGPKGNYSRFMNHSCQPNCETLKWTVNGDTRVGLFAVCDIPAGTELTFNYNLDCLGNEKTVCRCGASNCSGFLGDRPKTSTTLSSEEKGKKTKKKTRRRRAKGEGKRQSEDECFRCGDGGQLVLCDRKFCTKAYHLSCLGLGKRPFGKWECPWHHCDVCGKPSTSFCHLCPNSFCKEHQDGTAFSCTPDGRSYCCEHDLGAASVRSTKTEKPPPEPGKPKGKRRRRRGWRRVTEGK
This assay employed LC-MS/MS technology to monitor the SAH production from the NSD2 enzymatic reaction. The enzymatic reaction was performed in white proxiplate plus 384-well microplate (Perkin Elmer). The reaction mixture (10 μL) were composed of 8 nM NSD2 [1-1365], […] SAM (USB, 10601) and 400 nM nucleosome (purified from mouse liver) in reaction buffer (20 mM Tris-HCl, pH at 8.0, 0.01% Tween 20, 10 mM MgCl2, 50 mM NaCl, 1 mM DTT, 1 mM TCEP (pH7.5)). After 90 min incubation at room temperature, 3 μL quenching solution containing 2.5% TFA with 320 nM d4-SAH was added to stop the reaction.
For the inhibition assay, compound solutions were transferred into the wells by Mosquito™ (TTP LabTech). The inhibition assays were carried out by preincubating various concentrations of the inhibitor with 5 uL reaction mixture containing 16 nM NSD2 [1-1365] and 2 uM SAM (USB, 10601) in reaction buffer. After 20 min preincubation, 5 uL solution containing 800 nM nucleosome (purified from mouse liver) in reaction buffer was added to initiate the reaction. The reaction was stopped by 3 μL quenching solution containing 2.5% TFA with 320 nM d4-SAH after 90 min.
The SAH production from the enzymatic assays were monitored by LC-MS/MS on an API 4000 triple quadrupole mass spec with Turbolon Spray (Applied Biosystem) coupled with Prominenece UFLC(Shimazu). Liquid chromatography was performed on a Chromolith FastGradient HPLC column (RP-18e, 25-2 mm, from Merck) at a flow rate of 0.8 ml/min. The column was connected directly to the turbo ion electrospray operating in the positive-ion mode. Mobile phase A is 0.1% FA and 2% methanol in water and mobile phase B is 0.1% FA in ACN. Injection volume was 3 μl and the autosampler was kept at 4 degree. SAH and d4-SAH were simultaneously monitored. Data were acquired and processed by Analyst software.
To quantify the formed SAH, d4-SAH was added as internal standard (IS). A series of SAH (Sigma, A9384) solution at varying concentration (1-500 nM in reaction buffer) was mixed with quenching solution mentioned above. Then LC-MS/MS was carried out on API 4000 LC/MS/MS system to detect both SAH and d4-SAH. The plot of SAH peak area/IS peak area vs SAH concentration was used to generate the normalization factor of SAH. The SAH production from real enzymatic reaction was derived from the standard curve of SAH. The down-limit of our system for the detection of SAH is around 1-2 nM, and the linear range can reach up to 500 nM.
Usually IC50 stands for the concentration that inhibits the measured activity by half. Turning to `Nc1ncnc2c1ncn2Cc1c(N2CCC[C@](N)([C@H](O)C(F)F)C2)cnc(-c2ccc(F)cc2F)c1F` [Example 142, (S)-1-((R)-3-amino-1-(4-((6-amino-9H-purin-9-yl)methyl)-6-(2,4-difluorophenyl)-5-fluoropyridin-3-yl)piperidin-3-yl)-2,2-difluoroethan-1-ol], the half-maximal inhibitory concentration (IC50) was 0.01 to 1 µM.
On the same count and under the same terms, the figure for `NC(=O)C[C@@]1(N)CCCN(c2cnc(-c3ccc(F)c(F)c3)cc2Cn2cnc3c(N)ncnc32)C1` [Example 62, (S)-2-(3-amino-1-(4-((6-amino-9H-purin-9-yl)methyl)-6-(3,4-difluorophenyl)pyridin-3-yl)piperidin-3-yl)acetamide] is 0.01 to 1 µM; for `Nc1ncnc2c1ncn2Cc1cc(-c2ccc(F)c(F)c2)ncc1N1CCC[C@](N)(C(=O)NC2CCOCC2)C1` [Example 82, (R)-3-amino-1-(4-((6-amino-9H-purin-9-yl)methyl)-6-(3,4-difluorophenyl)pyridin-3-yl)-N-(tetrahydro-2H-pyran-4-yl)piperidine-3-carboxamide] it is 0.01 to 1 µM; for `Nc1ncnc2c1ncn2Cc1cc(-c2ccc(CNC(=O)CCl)cc2)ncc1N1CCCC(N)(CC(F)F)C1` (stereo not drawn) [Example 75, N-(4-(5-(3-amino-3-(2,2-difluoroethyl)piperidin-1-yl)-4-((6-amino-9H-purin-9-yl)methyl)pyridin-2-yl)benzyl)-2-chloroacetamide] it is 0.01 to 1 µM.
Still for that read-out and setting: to `N#CCC1(N)CCCN(c2cnc(-c3ccc(F)c(F)c3)cc2Cn2cnc3c(N)ncnc32)C1` (stereo not drawn) [Example 77, 2-(3-amino-1-(4-((6-amino-9H-purin-9-yl)methyl)-6-(3,4-difluorophenyl)pyridin-3-yl)piperidin-3-yl)acetonitrile] belongs greater than 1 µM; to `COc1ccc(-c2ncc(N3CCC[C@](N)([C@H](O)C(F)F)C3)c(Cn3cnc4c(N)ncnc43)c2F)c(F)c1` [Example 135, (S)-1-((R)-3-amino-1-(4-((6-amino-9H-purin-9-yl)methyl)-5-fluoro-6-(2-fluoro-4-methoxyphenyl)pyridin-3-yl)piperidin-3-yl)-2,2-difluoroethan-1-ol], 0.01 to 1 µM.
Same read-out and setting: the figure for `CC1(C(=O)C2(N)CCCN(c3cnc(-c4ccc(F)c(F)c4)cc3Cn3cnc4c(N)ncnc43)C2)COC1` (stereo not drawn) [Example 112, (3-amino-1-(4-((6-amino-9H-purin-9-yl)methyl)-6-(3,4-difluorophenyl)pyridin-3-yl)piperidin-3-yl)(3-methyloxetan-3-yl)methanone] is greater than 1 µM; for `COc1ccc(-c2cc(Cn3cnc4c(N)ncnc43)c(N3CCC[C@](N)(COC4CC4)C3)cn2)cc1F` [Example 31, (R)-9-((5-(3-amino-3-(cyclopropoxymethyl)piperidin-1-yl)-2-(3-fluoro-4-methoxyphenyl)pyridin-4-yl)methyl)-9H-purin-6-amine] it is 0.001 to 0.01 µM.
Consider `Nc1ncnc2c1ncn2Cc1cc(-c2cc(F)c(C(F)F)cc2F)ncc1N1CCC[C@](N)([C@H](O)C(F)F)C1` [Example 120, (S)-1-((R)-3-amino-1-(4-((6-amino-9H-purin-9-yl)methyl)-6-(4-(difluoromethyl)-2,5-difluorophenyl)pyridin-3-yl)piperidin-3-yl)-2,2-difluoroethan-1-ol], for which the IC50 was 0.001 to 0.01 µM.

Staying with this experiment, now noted: read-out: NSD2 IC50.
For `N#Cc1ccc(-c2cc(Cn3cnc4c(N)ncnc43)c(N3CCCC(N)(c4cccc(Cl)n4)C3)cn2)cc1F` (stereo not drawn) [Example 223], the IC50 is 0.01 to 1 µM.
Same read-out and setting: the figure for `Nc1ncnc2c1ncn2Cc1cc(-c2ccc(F)c(F)c2)ncc1N1CCC[C@@H](N)[C@H]1COCC(F)F` [Example 313, 9-((5-((2S,3R)-3-amino-2-((2,2-difluoroethoxy)methyl)piperidin-1-yl)-2-(3,4-difluorophenyl)pyridin-4-yl)methyl)-9H-purin-6-amine] is 0.01 to 1 µM; for `CN(C)C(=O)[C@@H]1[C@H](N)CCCN1c1cnc(-c2ccc(F)c(F)c2)cc1Cn1cnc2c(N)ncnc21` [Example 317, (2S,3R)-3-amino-1-(4-((6-amino-9H-purin-9-yl)methyl)-6-(3,4-difluorophenyl)pyridin-3-yl)-N,N-dimethylpiperidine-2-carboxamide] it is greater than 1 µM.
Consider `CCc1cncc([C@@]2(N)CCCN(c3cnc(-c4ccc(F)cc4)cc3Cn3cnc4c(N)nccc43)C2)n1` [Example 256, (R)-1-((5-(3-amino-3-(6-ethylpyrazin-2-yl)piperidin-1-yl)-2-(4-fluorophenyl)pyridin-4-yl)methyl)-1H-imidazo[4,5-c]pyridin-4-amine], for which the IC50 fell in the range of 0.01 to 1 µM.
As to `Nc1ncnc2c1ncn2Cc1cc(-c2ccc(F)c(F)c2)ncc1N1C[C@H](N)CCC1=O` [Example 325, (R)-5-amino-1-(4-((6-amino-9H-purin-9-yl)methyl)-6-(3,4-difluorophenyl)pyridin-3-yl)piperidin-2-one], the IC50 is greater than 1 µM.
`C[C@@H]1CN(c2cnc(-c3ccc(F)cc3)cc2Cn2cnc3c(N)ncnc32)C[C@@](N)(CC(F)F)C1` [Example 307, 9-((5-((3S,5S)-3-amino-3-(2,2-difluoroethyl)-5-methylpiperidin-1-yl)-2-(4-fluorophenyl)pyridin-4-yl)methyl)-9H-purin-6-amine]: the IC50 is greater than 1 µM.
Consider `Nc1ncnc2c1ncn2Cc1cc(-c2ccc(F)c(F)c2)ncc1N1CCCC(N)(C(F)C(F)F)C1` (stereo not drawn) [Example 300, 9-((5-(3-amino-3-(1,2,2-trifluoroethyl)piperidin-1-yl)-2-(3,4-difluorophenyl)pyridin-4-yl)methyl)-9H-purin-6-amine], for which the concentration for half-maximal inhibition (IC50) was 0.01 to 1 µM.
In the case of `Nc1nccc2c1ncn2Cc1cc(N2CCC2)ncc1N1CCCC(N)(c2cccc(Cl)n2)C1` (stereo not drawn) [Example 265, 1-((5-(3-amino-3-(6-chloropyridin-2-yl)piperidin-1-yl)-2-(azetidin-1-yl)pyridin-4-yl)methyl)-1H-imidazo[4,5-c]pyridin-4-amine], the concentration for half-maximal inhibition (IC50) was greater than 1 µM.
On the same count and under the same terms, the figure for `COc1ccc(-c2cc(Cn3cnc4c(N)ncnc43)c(N3CCC[C@](N)(c4ccc(F)c(C)n4)C3)cn2)cc1F` [Example 207, (R)-9-((5-(3-amino-3-(5-fluoro-6-methylpyridin-2-yl)piperidin-1-yl)-2-(3-fluoro-4-methoxyphenyl)pyridin-4-yl)methyl)-9H-purin-6-amine] is 0.01 to 1 µM; for `Nc1ncnc2c1ncn2Cc1cc(C2CC2)ncc1N1CCC[C@](N)(c2cccc(Cl)n2)C1` [Example 204, (R)-9-((5-(3-amino-3-(6-chloropyridin-2-yl)piperidin-1-yl)-2-cyclopropylpyridin-4-yl)methyl)-9H-purin-6-amine] it is 0.01 to 1 µM.
Still for that read-out and setting: to `Nc1ncnc2c1ncn2Cc1cc(-c2ccc(F)c(F)c2)ncc1N1CCC[C@]2(COC(=O)N2)C1` [Example 292, (R)-7-(4-((6-amino-9H-purin-9-yl)methyl)-6-(3,4-difluorophenyl)pyridin-3-yl)-3-oxa-1,7-diazaspiro[4.5]decan-2-one] belongs 0.01 to 1 µM.
Same read-out and setting: the figure for `Nc1ncnc2c1ncn2Cc1cc(-c2ccc(F)cc2)ncc1N1CCCC(N)(c2ccc(F)cn2)C1` (stereo not drawn) [Example 189, 9-((5-(3-amino-3-(5-fluoropyridin-2-yl)piperidin-1-yl)-2-(4-fluorophenyl)pyridin-4-yl)methyl)-9H-purin-6-amine] is 0.01 to 1 µM; for `Nc1ncnc2c1ncn2Cc1cc(-c2ccc(F)c(F)c2)ncc1N1CCCC(N)(C(F)CF)C1` (stereo not drawn) [Example 287, 9-((5-(3-amino-3-(1,2-difluoroethyl)piperidin-1-yl)-2-(3,4-difluorophenyl)pyridin-4-yl)methyl)-9H-purin-6-amine] it is 0.01 to 1 µM.
Turning to `Nc1ncnc2c1ncn2Cc1cc(-c2ccc(F)c(F)c2)ncc1N1CCC[C@@H](N)[C@H]1c1ccccc1` [Example 323, 9-((5-((2R,3R)-3-amino-2-phenylpiperidin-1-yl)-2-(3,4-difluorophenyl)pyridin-4-yl)methyl)-9H-purin-6-amine], the half-maximal inhibitory concentration (IC50) is greater than 1 µM.
Turning to `CC(O)c1ccc([C@@]2(N)CCCN(c3cnc(-c4ccc(F)c(F)c4)cc3Cn3cnc4c(N)ncnc43)C2)nc1F` (stereo partly drawn) [Example 215, 1-(6-((R)-3-amino-1-(4-((6-amino-9H-purin-9-yl)methyl)-6-(3,4-difluorophenyl)pyridin-3-yl)piperidin-3-yl)-2-fluoropyridin-3-yl)ethan-1-ol], the IC50 was in the range of 0.01 to 1 µM.
